# Data: US5571799A, “(2'-5') oligoadenylate analogues useful as inhibitors of host-v5.-graft response” (Basco, Ltd., priority 1994, dated 1996)
# “Also recorded” adds a separate entry of the source. Marks after values point to notes of the source that are not given here.
# Tests used:
# lymphocytes = assay: Lymphocyte blast-transformation reaction in operated rabbits; assay type: in vivo, chinchilla rabbits
# Method: (§1) Immunosuppression was performed by IV injection of (2'-5')A2 Ar-epoxy at a dose of 5 μg per 1.0 kg body weight at 0.1 ml of the physiologic solution daily until the conclusion of the experiment. During the first two weeks of the post-operative period, blood was taken for immunological analysis; BTR with PHA and Concanavalin A were tested.
# Lymphocyte Blast-Transformation Reaction in Operated Rabbits
# T-killers and T-helpers = assay: Immunosuppressive activity in vivo in monkeys; parameters: species or system Macaque Rh. monkeys
# Method: (§2) The experiments were performed on 4 year-old Macaque Rh. monkeys. The levels of the principal subpopulations of T-lymphocytes, IgA, IgG, IgM and the amount of α- and γ-interferon and interleukin II after administration (2'-5')olygoadenylate and its analogies at the concentration of 50 and 25 μg/kg of the body weight was investigated.
# (§3) FLOW CYTOFLUOROGRAFIC ANALYSIS OF LYMPHOCYTE SUBSETS
# (§4) Blood samples (100 μl of whole blood) were placed into a 12×17 tube. To these cells 20 μl of purified monoclonal antibodies were added with specificity for human cytotoxic/suppressor cells anti-Leu-2a (CD8), human helper/inducer anti-Leu-3a (CD4) and FITC conjugated monoclonal antibodies with specificity for natural killer cells-anti-Leu11c (CD16) (Becton Dickinson, San Jose). After 30 minutes incubation on ice, the cells were washed once and 20 μl of goat-antimouse chain phycoerythrin (Sigma P1286) conjugate were added to the tube with anti-Leu-2a and anti-Leu-3a monoclonal antibodies.
# (§5) After erythrocyte lysing with FACS lysing solution (Becton Dickinson, San Jose) the cells were analyzed on FACScan flow cytometer (Becton Dickinson, San Jose) with scatter gate set on lymphocyte fraction.
# transplanted kidney = assay: Kidney allotransplantation using chinchilla rabbits; assay type: in vivo
# Method: Kidney allotransplantations were performed using chinchilla rabbits of the same sex, weighing 5.0-6.5 kg. In the series of 10 rabbits, allogenic kidneys were transplanted on the neck vessels, rabbit ureter was taken outside for performing ureterocutaneostoma. Anastomosis was performed on the donor kidney vessels according to the "end-into-end" pattern, with the external carotid artery and the jugular vein joined by means of their preliminary cannulation and fixation by the cannulae with the recipient vessels.
# The recipient rabbits had combined anesthesia: intravenous introduction of hexenal at a rate of 10 mg per 1.0 kg. body weight was supplemented by local anesthesia with 0.25-0.5% novocaine solution up to 15.0 ml. An intact rabbit served as a kidney donor, whose kidneys were exposed by means of transperitoneal access and perfused with 500 ml of Eurocollins solution, in situ. Simultaneously with the kidney perfusion, kidney vessels and ureters were utilized, the latter being cut at the level of iliac vessels. Having performed perfusion without extracting a kidney from the donor, kidney vessels were cannulated from the aorta and vena cava, the canulae were fixed with separate ligatures and the vessels were released. After this, the kidney was extracted.
# The organs were preserved at the temperature of melting ice. Then we proceeded directly to kidney transplantation. The preservation lasted for about 2.5-3.0 hours and thermal ischemia (secondary) duration was 30-40 minutes.
# as §1
# The results of the experiments were evaluated clinically, by the presence or absence of urination from the ureterocutaneostoma and by the behavior of the experimental animals.
# T-helpers = assay: Immune system of monkeys: T-helpers, flow cytofluorografic analysis; assay type: in vivo, Macaque Rh. monkeys
# Method: as §2, §3, §4, §5
# [1] = tested on: β-lymphocytes (murine splenocytes) stimulated with lipopolysaccharide; assay: In vitro blast-transformation of murine lymphocytes, LPS (β-lymphocyte mitogen), [3H]-thymidine; assay type: cell-based, mouse (CBA); conditions: for DNA synthesis at [^3 H]-thymidine [incorporated counts/min.]: LPS 0.1 μg/ml
# Text: The immune reactions in an organism begins with the division of lymphocytes. In vitro investigation of the lymphocyte blast-transformationreaction under the influence of mitogens makes it possible to use this model system to select chemically synthesized 2'-5'A3 analogues which suppress division of lymphocytes. Using Concanavalin A and lipopolysaccharide as mitogens, the effect of analogues on the division of T- and β-lymphocytes may be investigated.
# CBA mice 8-10 weeks old were used for these experiments. A suspension of mouse splenocytes were obtained by gently teasing spleens with forceps. Lymphocytes cultivated in flat-bottomed 96-well plates (Linbro) in RPMI-1640 medium (Flow Lab.) were supplemented with 2 mM 1-glutamine, 10 μg/ml gentamicin, 10^-5 M 2-mercaptoethanol and 10% heat inactivated fetal calf serum (Flow Lab). Cultures were maintained in 5% CO2 at 37° C. One μCi of ^3 H-thymidine (Isotop®) was added to each well 4 hours before the end of the incubation period. Incorporation of ^3 H-thymidine into cellular DNA was determined by liquid scintillation counting using standard techniques. Oligoadenylate was added to the medium at the beginning of culturing to achieve the final concentration.
# (Con A being a mitogen for T-lymphocytes and LPS being a mitogen for β-lymphocytes).
substance,measurement,setting,value
"Adenylyl (2'-5')adenylyl (2'-5')-9-(2,3-anhydro-β-D-ribofuranosyl) adenine disodium salt [(2'-5')A2 Ar-epoxy]",DNA synthesis by [^3 H]-thymidine incorporated,"lymphocytes; Con A, Group 1, 2 weeks post-op., pre-op. 12.6",1.6 cpm(×10^3)
same,DNA synthesis by [^3 H]-thymidine incorporated,"lymphocytes; Con A, Group 1, 48 h. post-op., pre-op. 12.6",1.6 cpm(×10^3)
same,DNA synthesis by [^3 H]-thymidine incorporated,"lymphocytes; Con A, Group 2, 2 weeks post-op., pre-op. 11.0",5.0 cpm(×10^3)
same,DNA synthesis by [^3 H]-thymidine incorporated,"lymphocytes; Con A, Group 2, 48 h. post-op., pre-op. 11.0",4.4 cpm(×10^3)
same,DNA synthesis by [^3 H]-thymidine incorporated,"lymphocytes; PHA 10, Group 1, 2 weeks post-op., pre-op. 6.0",1.5 cpm(×10^3)
same,DNA synthesis by [^3 H]-thymidine incorporated,"lymphocytes; PHA 10, Group 1, 48 h. post-op., pre-op. 6.0",0.9 cpm(×10^3)
same,DNA synthesis by [^3 H]-thymidine incorporated,"lymphocytes; PHA 10, Group 2, 2 weeks post-op., pre-op. 7.0",2.1 cpm(×10^3)
same,DNA synthesis by [^3 H]-thymidine incorporated,"lymphocytes; PHA 10, Group 2, 48 h. post-op., pre-op. 7.0",2.4 cpm(×10^3)
same,DNA synthesis by [^3 H]-thymidine incorporated,"lymphocytes; PHA 20, Group 1, 2 weeks post-op., pre-op. 2.1",1.6 cpm(×10^3)
same,DNA synthesis by [^3 H]-thymidine incorporated,"lymphocytes; PHA 20, Group 1, 48 h. post-op., pre-op. 2.1",1.2 cpm(×10^3)
same,DNA synthesis by [^3 H]-thymidine incorporated,"lymphocytes; PHA 20, Group 2, 48 h. post-op., pre-op. 1.4",5.5 cpm(×10^3)
same,DNA synthesis by [^3 H]-thymidine incorporated,"lymphocytes; Spontaneous, Group 1, 48 h. post-op., pre-op. 0.648",0.306 cpm(×10^3)
same,DNA synthesis by [^3 H]-thymidine incorporated,"lymphocytes; Spontaneous, Group 2, 48 h. post-op., pre-op. 0.597",0.274 cpm(×10^3)
same,suppression of lymphocyte blast-transformation stimulated with Con A,"lymphocytes; post-transplanted rabbits, IV 5 μg/kg",~10 fold
same,"lymphocyte blast-transformation reaction, in words",lymphocytes; two weeks following the operation,inhibition of the lymphocyte blast-transformation reaction
same,"immunosuppressive activity, in words","T-killers and T-helpers; monkeys, IV, disodium salt",suppresses significantly the number of T-lymphocytes in blood after only 48 hours; also recorded: strong immunosuppressive activity specifically against T-killers and T-helpers; also recorded: suppressed more actively the number of T-killer and T-helpers
same,increase of the quantity of the subpopulation of T-helpers and T-killers,"T-killers and T-helpers; single IV injection (Table 10 experiment, 500 μg/kg)",about 50%
same,suppression of the number of T-killers and T-helpers,"T-killers and T-helpers; single IV injection, 48 hours, monkeys",50%
same,animals with positive results (graft function),"transplanted kidney; 10 rabbits, 5 μg/kg daily IV",four
same,rabbits with no graft function in the early postoperative period,"transplanted kidney; 10 rabbits, probably vesicular thrombosis",four
same,time to death after nephrectomy,transplanted kidney; another rabbit,≤ 48 h
same,rabbits with generalized viral infection of the respiratory tract,transplanted kidney; fatal,2 rabbits
same,duration of function of the grafted kidney,"transplanted kidney; first group, four animals, 5 μg/kg daily IV",at least 2 months
same,"death after transplantation (wound suppuration, sepsis)","transplanted kidney; fourth group, single rabbit",death within the first week after transplantation
same,"graft function after ablation of contralateral kidney, in words","transplanted kidney; one rabbit, 1 month after operation",the grafted kidney continued functioning
same,period of normal functioning of the transplanted kidney,"transplanted kidney; rabbits, IV 5 μg/kg (summary)",3 months
same,T-helpers,"T-helpers; single IV 25 μg/kg, day 0 (baseline)",16%
same,T-helpers,"T-helpers; single IV 25 μg/kg, day 1",20%
same,T-helpers,"T-helpers; single IV 25 μg/kg, day 2",10%
same,T-helpers,"T-helpers; single IV 25 μg/kg, day 4",4%
same,T-helpers,"T-helpers; single IV 25 μg/kg, day 8",5.3%
same,T-helpers,"T-helpers; single IV 25 μg/kg, day 12",7%
same,T-helpers,"T-helpers; single IV 25 μg/kg, day 21",23%
same,T-helpers,"T-helpers; single IV 50 μg/kg, day 0 (baseline)",30%
same,T-helpers,"T-helpers; single IV 50 μg/kg, day 1",29%
same,T-helpers,"T-helpers; single IV 50 μg/kg, day 2",15%
same,T-helpers,"T-helpers; single IV 50 μg/kg, day 4",1.2%
same,T-helpers,"T-helpers; single IV 50 μg/kg, day 8",5.0%
same,T-helpers,"T-helpers; single IV 50 μg/kg, day 12",7.0%
same,T-helpers,"T-helpers; single IV 50 μg/kg, day 21",30.6%
same,DNA synthesis at [^3 H]-thymidine [incorporated counts/min.],"[1]; 5 × 10^-6 M, control 27,133","21,464 counts/min."
same,"inhibition of lymphocyte blast-transformation, in words","[1]; LPS, β-lymphocytes",weaker effect of the division of β-lymphocytes
same,DNA synthesis at [^3 H]-thymidine [incorporated counts/min.],"[1]; Table 4, 5 × 10^-6 M, control 10,766","7,665 counts/min."
same,DNA synthesis at [^3 H]-thymidine [incorporated counts/min.],"[1]; Table 4, 5 × 10^-7 M, control 10,766","6,018 counts/min."
same,DNA synthesis at [^3 H]-thymidine [incorporated counts/min.],"[1]; Table 4, 5 × 10^-8 M, control 10,766","4,767 counts/min."
same,DNA synthesis at [^3 H]-thymidine [incorporated counts/min.],"[1]; Table 4, 5 × 10^-9 M, control 10,766","7,348 counts/min."
same,DNA synthesis at [^3 H]-thymidine [incorporated counts/min.],"[1]; Table 4, 5 × 10^-10 M, control 10,766",672 counts/min.
same,DNA synthesis at [^3 H]-thymidine [incorporated counts/min.],"[1]; Table 5, 5 × 10^-6 M, control 5,513",131 counts/min.
same,DNA synthesis at [^3 H]-thymidine [incorporated counts/min.],"[1]; Table 5, 5 × 10^-7 M, control 5,513",292 counts/min.
same,DNA synthesis at [^3 H]-thymidine [incorporated counts/min.],"[1]; Table 5, 5 × 10^-8 M, control 5,513",655 counts/min.
same,DNA synthesis at [^3 H]-thymidine [incorporated counts/min.],"[1]; Table 5, 5 × 10^-9 M, control 5,513","3,342 counts/min."
same,DNA synthesis at [^3 H]-thymidine [incorporated counts/min.],"[1]; Table 5, 5 × 10^-10 M, control 5,513","1,213 counts/min."
